Results as given in patent publication US20250082656A1, “DOSAGE REGIMENS FOR TREATMENT OF DENGUE INFECTION” (Atea Pharmaceuticals, Inc., priority 2022, published 2025).

Key:
[1] = test system: DENV-2 D2Y98P; format: in vivo, AG129 mice
[2] = SD rat plasma
[3] = Plasma PK after single oral dose of AT-752, monkeys; format: in vivo, cynomolgus monkeys; conditions: monkeys, oral 300 mg/kg or 60 mg/kg
Experimental: Male cynomolgus monkeys were administered 300 mg/kg Compound 2 (AT-752). Blood samples were collected up to 24 hrs. post dose, plasma separated and analyzed for Compound 1 (AT-281), Compound 3 (AT-551), and Compound 6 (AT-273) by LC-MS/MS. Data are express as mean+/−SD (n=3-5/time point). The x-axis is time post the dose measured in hours and the y-axis is the plasma concentration of the metabolites measured in nanomoles/mL). The experimental procedure is provided in Example 14.
Male non-naïve cynomolgus monkeys (Hainan Jingang Laboratory Animal Co. Ltd., China), at least 2 kg body weight, were individually housed during the study in stainless steel mesh cages, provided ad libitum access to RO water, fed twice daily (except on the day of dosing when they were fed once) with ˜60 g Certified Monkey Diet each feed (Beijing Vital Keao Feed Co., Ltd., Beijing, China) and given daily treats of fresh fruit. They (n=5) were administered a dose of Compound 2 (AT-752) at 300 mg/kg in 40% PEG400, 10% solutol HS15, 50% 100 mM citrate buffer, pH 4.5 (v/v) by oral gavage, and blood samples (˜0.5 mL) were collected at 1, 2, 4, 8, 12 and 24 h post dose. Plasma was separated at each time point for pharmacokinetics, and stored at −70° C. […] Separately, three monkeys were given an oral dose of Compound 2 (AT-752) as powder in capsules at 60 mg/kg ([…] (AT-281) equivalent dose of 55 mg/kg), and blood samples collected at 12, 24 and 48 h post dose.
(§1) Pharmacokinetic measurements for FIGS. 11, 12, 13, 14, and 15 were analyzed using LC-MS/MS according to the protocol described herein. Plasma samples were prepared for MS analysis by adding internal standards and extracting with 20 volumes chilled ACN. After vortex (800 rpm for 10 min) and centrifugation (4,000 rpm, 15 min, 4° C.), the supernatants (25 μL) were diluted with an equal volume of H2O, mixed and spun again. After adding internal standards, the PBMC samples (10^6 cells) were lyzed with 300 μL MeOH/H2O (70:30, v/v) and 40 mM dibutylammonium acetate (DBAA), mixed by vortex and centrifuged (12,000 rpm, 15 min, 4° C.). Aliquots of the supernatants (35 μL) were dried under nitrogen and reconstituted in H2O, then mixed and spun again. […] A binary nonlinear gradient with mobile phases A (0.1% formic acid in water) and B (0.1% formic acid in ACN) were used to elute samples at 0.8 mL/min, with a run time of 5 min. […] A binary nonlinear gradient with mobile phases A (0.001% NHr H2O, 0.18 mM DBAA in H2O) and B (10 mM N,N-dimethyl-hexylamine, 3 mM NH4OAc in ACN/H2O (50.50, v/v)) were used to elute samples at 0.5 mL/min, with a run time of 3 min. Standards in 50% MeOH were used for calibration. […] Internal standards (ISS) as described previously (Good et al., Preclinical evaluation of AT-527, a novel guanosine nucleotide prodrug with potent, pan-genotypic activity against hepatitis C virus. PLos One 15:e02271045) were used to correct for variations in recovery.
(§2) Data analysis of the pharmacokinetic data generated according to Example 21 and presented in FIGS. 11, 12, 13, 14, and 15 was analyzed according to the procedure described herein. Plasma concentrations of Compound 1 (AT-281), Compound 3 (AT-551) and Compound 6 (AT-273) were subjected to non-compartmental pharmacokinetic analysis using Phoenix WinNonlin software (version 6.3 or above, Pharsight, Mountain View, CA). The linear/log trapezoidal rule was applied in obtaining the PK parameters.

[4] = Safety study in humans (SAD and MAD cohorts); format: in vivo, human
Experimental: Safety assessments including adverse events, standard clinical laboratory tests, vital sign measurements, electrocardiograms, and physical examinations were performed.

[5] = Plasma stability, human plasma; conditions: 2 μM, 37° C.
[6] = Plasma stability, cynomolgus monkey plasma; conditions: 2 μM, 37° C.
[7] = Pharmacokinetic study in SAD cohorts; format: in vivo, human; conditions: South/Southeast/East Asian versus mostly Caucasian cohorts, 1000 mg
Experimental: as §1, §2

[8] = MAD 750 mg BID × 4 days plus one dose Day 5, 6 patients
[9] = MAD 750 mg TID × 4 days plus one dose Day 5, 6 patients
[10] = MAD 1000 mg QD × 7 days, 6 patients
[11] = SAD 1000 mg fasting, 6 patients
[12] = SAD 1000 mg, South/Southeast/East Asian origin, 6 patients
[13] = SAD 1500 mg fasting, 6 patients

CNc1nc(N)nc2c1ncn2[C@@H]1O[C@H](CO[P@](=O)(N[C@@H](C)C(=O)OC(C)C)Oc2ccccc2)[C@@H](O)[C@@]1(C)F [Compound 2, isopropyl ((R)-(((2R,3R,4R,5R)-5-(2-amino-6-(methylamino)-9H-purin-9-yl)-4-fluoro-3-hydroxy-4-methyltetrahydrofuran-2-yl)methoxy)(phenoxy)phosphoryl)-L-alaninate]
health scores versus vehicle control group ([1]; Day 4 to Day 9 pi, p<0.001 by t-test): significantly better health scores | Viremia versus vehicle only group ([1]; Day 6 pi, 1000 mg/kg loading, 500 mg/kg BID 7 days oral, p=0.000014 by t-test): significantly lower than the vehicle only group | weight loss versus vehicle control mice ([1]; Days 5, 7 and 8 pi, p<0.001 by t-test): significantly reduced weight loss | spleen viral load versus control group ([1]; by Day 7 pi): not statistically different | Viremia ([1]; by Day 8 pi, virus still measurable in all surviving controls, p=0.0045): cleared in all treated animals | survival (Kaplan-Meier) versus vehicle control group ([1]; p=0.0004, Mantel-Cox log-rank test): significantly improved the survival | drug remaining at the first time point (10 min of incubation) [2]: no drug remaining | unusual or adverse clinical signs [3]: no such signs noted | Headache, subjects reporting [4, 8]: 1 | Nausea, subjects reporting [4, 8]: 1 | Vomiting, subjects reporting [4, 8]: 1 | Headache, subjects reporting [4, 9]: 0 | Nausea, subjects reporting [4, 9]: 0 | Vomiting, subjects reporting [4, 9]: 0 | Headache, subjects reporting [4, 10]: 0 | Nausea, subjects reporting [4, 10]: 0 | Vomiting, subjects reporting [4, 10]: 0 | Headache, subjects reporting ([4]; SAD 250 mg fasting, 6 patients): 0 | Nausea, subjects reporting ([4]; SAD 250 mg fasting, 6 patients): 0 | Vomiting, subjects reporting ([4]; SAD 250 mg fasting, 6 patients): 0 | Headache, subjects reporting ([4]; SAD 500 mg fasting, 7 patients): 2 | Nausea, subjects reporting ([4]; SAD 500 mg fasting, 7 patients): 0 | Vomiting, subjects reporting ([4]; SAD 500 mg fasting, 7 patients): 0 | Headache, subjects reporting ([4]; SAD 500 mg fed, 7 patients): 4 | Nausea, subjects reporting ([4]; SAD 500 mg fed, 7 patients): 1 | Vomiting, subjects reporting ([4]; SAD 500 mg fed, 7 patients): 0 | Headache, subjects reporting [4, 11]: 1 | Nausea, subjects reporting [4, 11]: 1 | Vomiting, subjects reporting [4, 11]: 1 | Headache, subjects reporting [4, 12]: 0 | Nausea, subjects reporting [4, 12]: 0 | Vomiting, subjects reporting [4, 12]: 0 | Headache, subjects reporting [4, 13]: 2 | Nausea, subjects reporting [4, 13]: 1 | Vomiting, subjects reporting [4, 13]: 2 | tolerability ([4]; healthy subjects, SAD 250-1500 mg and MAD cohorts, oral): well tolerated | serious adverse events or discontinuations due to adverse events ([4]; healthy subjects, SAD and MAD cohorts): no serious adverse events or discontinuations due to adverse events were reported | % of starting concentration remained after 120 min of incubation [5]: 93.5% | % of starting concentration remained after 120 min of incubation [6]: 98.2% | pharmacokinetic ethnic sensitivity [7]: absence of pharmacokinetic ethnic sensitivity
